The values that follow come from US10674755B2, “Organic Compounds” (GIVAUDAN SA, priority 2013, dated 2020).

The nature of assay [1]: Beef bouillon taste evaluation by a panel of experienced tasters. As for the experimental part: A beef bouillon was prepared using bouillon cubes obtained from a local supermarket.
Assay [2] can be described thus: Mango-flavoured beverage taste evaluation by a panel of experienced tasters. The settings on record: 0.5 ppm dosed to mango drink (mango flavour 0.05% w/w, mango juice 0.18% w/w, sugar 8% w/w, citric acid 0.1% w/w). As for the experimental part: A mango-flavoured beverage was prepared using a standard mango flavour (0.05% w/w), mango juice (0.18% w/w), sugar (8% w/w) and citric acid (0.1% w/w).

[3] abbreviates: 40 ppb added to beef bouillon from bouillon cubes.
[4] abbreviates: 0.5 ppm dosed to beef bouillon from bouillon cubes.

Consider `CC/C=C\C/C=C\C/C=C\CCCCCCCC(=O)NCCO` [Example 8, N-(2-hydroxyethyl)linolenamide], for which the “taste of the bouillon versus the reference (panel agreement)” value in assay [1] (setting [3]) was “tasted more fatty, and slightly more salty than the reference”.

With `CCCCCCCC/C=C\CCCCCCCC(=O)NCCCC(N)=O` [Example 6, N-(4-amino-4-oxobutyl)oleamide], the “taste of the bouillon versus the reference (panel agreement)” value in assay [1] (setting [4]) was “tasted more full and had more mouthfeel than the reference”. For the molecule `CCCCCCCC/C=C\CCCCCCCC(=O)NCCCSC` [Example 2, N-(3-(methylthio)propyl)oleamide], in assay [2], the “taste of the mango drink versus the reference drink (panel agreement)” value was “tasted more tropical and more juicy than the reference drink”.

For the molecule `CCCCCCCCCCCCCCCCCCCC(=O)NCCO` [Example 9, N-(2-hydroxyethyl)eicosanamide], in assay [1] (setting [3]), the “taste of the bouillon versus the reference (panel agreement)” value was “tasted more fatty, beefier and smoky, tasted more fully and had more body than the reference”. As to `CCCCC/C=C\C/C=C\C/C=C\C/C=C\CCCC(=O)NCCO` [Example 10, N-(2-hydroxyethyl)arachidonamide], the “taste of the bouillon versus the reference (panel agreement)” value in assay [1] (setting [4]) is “had more mouthfeel and tasted more salty and more umami than the reference”; in assay [1] (setting [3]) it was “tasted saltier, sweeter, more fatty and slightly more umami than the reference, and had more mouthfeel”.

In the case of `CCCCCCCC/C=C\CCCCCCCC(=O)NCCC(C)C` [Example 4, N-isopentyloleamide], the “taste of the mango drink versus the reference drink (panel agreement)” value in assay [2] is “tasted somewhat more astringent and fruity and had more body”.
